The source of these data is ChEMBL document CHEMBL1152186, “Design, synthesis, and evaluation of orally active inhibitors of plasminogen activator inhibitor-1 (PAI-1) production” (Bioorg Med Chem Lett, 2008).

A word on the solubility: it is how much of the substance goes into solution per volume.

Data set [1] is filed under the species Bos taurus. In words: Inhibition of LPS-induced PAI1 production in BCAEC at 10 uM after 24 hrs relative to T-686. The class given is functional.
Data set [2] in a line: Metabolic stability in dog blood after 1 hr. To be noted: read-out: Stability. The class given is ADME, tissue-based, Canis lupus familiaris.
For data set [3], the species on record is Bos taurus. Nature of the data set: Inhibition of LPS-induced PAI1 production in BCAEC at 1 uM after 24 hrs relative to T-686. Type of data set: functional.
A short description of data set [4]: Solubility in water. Type of data set: physicochemical.
Data set [5] relates to Rattus norvegicus. Nature of the data set: Antithrombotic activity in rat venous thrombosis model assessed as decrease in thrombus weight at 3 mg/kg, po administered for 3 days after 2 hrs last dose. Type of data set: functional. Details: scale not given: the % may be the effect or the level left.
Data set [6] deals with Rattus norvegicus. Nature of the data set: Toxicity in rat assessed as decrease in locomotor activity at 300 mg/kg, po. To be noted: in vivo. Type of data set: organism-based. Set-up: dose 300 mg/kg, route oral.

In brackets after ≈: the same amount, converted by molar mass.

Take `COC(=O)C(=C(/C)c1cc(OC)c(OC)c(OC)c1)/C(=C\c1ccccc1)C(N)=O`: the values for the Activity in data set [1] and in data set [3] were 1 and 1.5, respectively. Moreover, in data set [2], the remaining at 1 h is 96%. In data set [4], this molecule displayed a solubility of 106 µg/mL (≈ 0.258 mM).
`COC(=O)C(=C(/C)c1cc(OC)cc(OC)c1)/C(=C\c1ccccc1)C(=O)O` gave an Activity in data set [3] of 0.4.
On the same count and under the same terms, under `COC(=O)C(=C(/C)c1cc(OC)cc(OC)c1)/C(=C\c1ccccc1)C(=O)Nn1cnnc1` stands 0.6.
On the same count and under the same terms, under `COC(=O)C(=C(/C)c1cc(OC)cc(OC)c1)/C(=C\c1ccccc1)C(=O)N1CCN(C)CC1` stands 0.3.
For the molecule `COC(=O)C(=C(/C)c1cc(OC)cc(OC)c1)/C(=C\c1ccncc1)C(N)=O`, the remaining at 1 h in data set [2] amounted to 88%. The Activity in data set [3] came to 1.5. The solubility in data set [4] was more than 4000 µg/mL.
As for `COC(=O)C(=C(/C)c1cc(OC)cc(OC)c1)/C(=C\c1ccccc1)C(=O)Nc1cccc2cccnc12`, the Activity in data set [3] stood at 0.4.
Same read-out and setting: under `COC(=O)C(=C(/C)c1cc(OC)cc(OC)c1)/C(=C\c1ccccc1)C(=O)Nc1ncccn1` stands 0.1.
As to `COc1cc(/C=C2/C(=O)NC(=O)/C2=C/c2ccccc2)cc(OC)c1OC`, the Activity in data set [1] and in data set [3] was 1 throughout. In addition, in data set [2], the remaining at 1 h stood at 79%. The solubility in data set [4] worked out at 9 µg/mL (≈ 0.0246 mM).
`COC(=O)C(=C(/C)c1cc(OC)cc(OC)c1)/C(=C\c1cccnc1)C(N)=O` had an Activity in data set [3] of 0.8.
For `COC(=O)C(=C(/C)c1cc(OC)cc(OC)c1)/C(=C\c1ccccc1)C(=O)Nc1ccncc1`, the remaining at 1 h in data set [2] came to 87%. For the same molecule, the Activity is 1.8 in data set [3], 58% in data set [5] and “Toxic” in data set [6]. The same molecule registered a solubility in data set [4] of more than 3000 µg/mL.
For `COC(=O)C(=C(/C)c1cc(OC)cc(OC)c1)/C(=C\c1ccccc1)C(=O)NN1CC[N+](C)([O-])CC1`, the Activity in data set [3] stood at 0.2.
Regarding `COC(=O)C(=C(/C)c1cc(OC)cc(OC)c1)/C(=C\c1ccccc1)C(=O)Nc1nnn[nH]1`, in data set [3], the Activity is 0.1.
In data set [1], `COC(=O)C(=C/c1cc(OC)c(OC)c(OC)c1)/C(C(N)=O)=C(/C)c1ccccc1` yielded an Activity of 0.2.
Turning to `COC(=O)C(=C(/C)c1cc(OC)cc(OC)c1)/C(=C\c1ccccc1)C(=O)NCc1ccncc1`, in data set [2], the remaining at 1 h amounted to 76%. For the same molecule, the Activity in data set [3] was determined as 2.1. In addition, the solubility in data set [4] is more than 2000 µg/mL.
For the molecule `COC(=O)C(=C(/C)c1cc(OC)cc(OC)c1)/C(=C\c1ccccc1)C(=O)NCc1cccnc1`, in data set [2], the remaining at 1 h is 87%. Moreover, the Activity in data set [3] is 1.3; in data set [5], 53%; in data set [6] it was “Toxic”. Also, the concentration in solution in data set [4] (solubility) came to 1600 µg/mL (≈ 3.39 mM).
As for `COC(=O)C(/C(=C\c1ccccc1)C(N)=O)=C(\C)c1cc(OC)c(OC)c(OC)c1`, the Activity in data set [1] was determined as 0.3.
Consider `COC(=O)C(=C/c1cc(OC)c(OC)c(OC)c1)/C(=C\c1ccccc1)C(N)=O`, for which the Activity in data set [1] was 0.9.
On the same count and under the same terms, under `COC(=O)C(=C/c1cc(OC)c(OC)c(OC)c1)/C(C(N)=O)=C(\C)c1ccccc1` stands 0.3; under `COC(=O)C(=C/c1cc(OC)c(OC)c(OC)c1)/C(=C/c1ccccc1)C(N)=O`, 0.7.
As for `COC(=O)C(=C(/C)c1cc(OC)cc(OC)c1)/C(=C\c1ccccc1)C(=O)Nc1cccnc1`, in data set [2], the remaining at 1 h came out at 83%. The same molecule had an Activity in data set [3] of 2.2. This molecule also returned a solubility in data set [4] of more than 2000 µg/mL.
Take `COC(=O)C(=C(/C)c1cc(OC)cc(OC)c1)/C(=C\c1ccccc1)C(=O)NN1CCN(C)CC1`: the remaining at 1 h in data set [2] worked out at 89%. In addition, the Activity in data set [3] was 1.5; in data set [5] it was 50%; in data set [6] it was “Non-toxic”. Further, the solubility in data set [4] is more than 4000 µg/mL.
`COC(=O)C(=C(/C)c1cc(OC)cc(OC)c1)/C(=C\c1ccccc1)C(=O)NC1CCN(C)CC1`: in data set [3], the Activity came to 0.8.
Molecule `COC(=O)C(=C\c1cc(OC)c(OC)c(OC)c1)/C(=C\c1ccccc1)C(N)=O` registered an Activity in data set [1] of 0.7. For the same molecule, in data set [2], the remaining at 1 h turned out to be 75%.
